In the experiment the test system is BDF1 mice, P388 leukemia ip, median survival T/C. The experiment is described as follows: NCI In Vivo Anticancer Drug Screen. Data for tumor model P388 Leukemia (intraperitoneal) in B6D2F1 (BDF1) mice. Particulars: endpoint: median survival time, higher = longer survival. The essentials: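 Read-out is survival of treated animals expressed relative to the vehicle group, as a T/C ratio.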

Setting [1] is: dose: 50.0 mg/kg/injection, schedule: Q01DX009 (ip), vehicle: saline with Tween-80.
Where [2] appears, read: dose: 100.0 mg/kg/injection, schedule: Q01DX009 (ip), vehicle: saline with Tween-80.
[3] abbreviates: dose: 2.0 mg/kg/injection, schedule: Q01DX009 (ip), vehicle: saline.
[4] abbreviates: dose: 33.0 mg/kg/injection, schedule: Q04DX003 (ip), vehicle: saline.
Setting [5] is: dose: 50.0 mg/kg/injection, schedule: Q04DX003 (ip), vehicle: saline.
Setting [6] is: dose: 12.5 mg/kg/injection, schedule: Q04DX003 (ip), vehicle: saline.

Molecules are shown by their SMILES. Values joined by “and” are separate entries in the source; they are usually repeats but may differ in a detail not shown here. Equal values may be shown once. Inconclusive results and toxic doses are left out.

Regarding `C/C(=C/c1c(C)[nH]c(=O)[nH]c1=O)C(=O)O`, the T/C runs as follows: (dose: 25.0 mg/kg/injection, schedule: Q01DX009 (ip), vehicle: saline) 89 % of control; (dose: 50.0 mg/kg/injection, schedule: Q01DX009 (ip), vehicle: saline) 89 % of control; (dose: 100.0 mg/kg/injection, schedule: Q01DX009 (ip), vehicle: saline) 96 % of control; (dose: 100.0 mg/kg/injection, schedule: Q04DX003 (ip), vehicle: saline) 101 % of control; (dose: 200.0 mg/kg/injection, schedule: Q01DX009 (ip), vehicle: saline) 105 % of control; (dose: 200.0 mg/kg/injection, schedule: Q04DX003 (ip), vehicle: saline) 91 % of control. Moreover, the T/C (dose: 400.0 mg/kg/injection, schedule: Q04DX003 (ip), vehicle: saline) was 87 % of control.
Regarding `N#CSCc1nc2ccc(Cl)cc2c(-c2ccccc2)[n+]1[O-]`, the T/C runs as follows: under setting [1], 100 % of control; under setting [2], 114 % of control; (dose: 200.0 mg/kg/injection, schedule: Q01DX009 (ip), vehicle: saline with Tween-80) 114 % of control.
As for `CC[C@](O)(C(=O)O)c1cc2n(c(=O)c1CO)Cc1cc3ccccc3nc1-2`, the T/C is 112 % of control (dose: 1.0 mg/kg/injection, schedule: Q01DX009 (ip), vehicle: water); 156 % of control under setting [3]; 150 % of control (dose: 2.0 mg/kg/injection, schedule: Q01DX009 (ip), vehicle: water); 116 % of control (dose: 3.13 mg/kg/injection, schedule: Q04DX002 (ip), vehicle: saline); 171 % of control (dose: 4.0 mg/kg/injection, schedule: Q01DX009 (ip), vehicle: saline); 161 % of control (dose: 12.5 mg/kg/injection, schedule: Q04DX002 (ip), vehicle: saline). Moreover, the T/C runs as follows: (dose: 12.5 mg/kg/injection, schedule: Q04DX009 (ip), vehicle: saline) 192 % of control; (dose: 14.4 mg/kg/injection, schedule: Q04DX003 (ip), vehicle: saline) 175 % of control; (dose: 18.0 mg/kg/injection, schedule: Q04DX003 (ip), vehicle: saline) 175 % of control; (dose: 24.0 mg/kg/injection, schedule: Q04DX003 (ip), vehicle: saline) 214 % of control; (dose: 25.0 mg/kg/injection, schedule: Q04DX002 (ip), vehicle: saline) 199 % of control; (dose: 25.0 mg/kg/injection, schedule: Q04DX009 (ip), vehicle: saline) 192 % of control. The T/C by setting is: (dose: 30.0 mg/kg/injection, schedule: Q04DX003 (ip), vehicle: saline) 201 % of control; under setting [4], 168 % of control; (dose: 40.0 mg/kg/injection, schedule: Q04DX003 (ip), vehicle: saline) 224 % of control; (dose: 40.0 mg/kg/injection, schedule: Q04DX003 (ip), vehicle: water) 104 % of control; under setting [5], 172 % of control; (dose: 66.7 mg/kg/injection, schedule: Q04DX003 (ip), vehicle: saline) 90 % of control. In addition, the T/C runs as follows: (dose: 75.0 mg/kg/injection, schedule: Q04DX003 (ip), vehicle: saline) 200 % of control; (dose: 100.0 mg/kg/injection, schedule: Q01DX001 (ip), vehicle: saline) 172 % of control; (dose: 150.0 mg/kg/injection, schedule: Q01DX001 (ip), vehicle: saline) 43 % of control; (dose: 175.0 mg/kg/injection, schedule: Q01DX001 (ip), vehicle: saline) 90 % of control.
Turning to `CC#CC(=O)O`, the T/C is 100 % of control (dose: 12.5 mg/kg/injection, schedule: Q01DX009 (ip), vehicle: saline with Tween-80); 106 % of control (dose: 25.0 mg/kg/injection, schedule: Q01DX009 (ip), vehicle: saline with Tween-80); 109 % of control under setting [1]; 106 % of control under setting [2].
Consider `CC1=C(CO)C(=O)O[C@@H]([C@@H](C)[C@H]2CC[C@H]3[C@@H]4C[C@H]5O[C@]56[C@@H](O)C=CC(=O)[C@]6(C)[C@H]4CC[C@]23C)C1`, for which the T/C is, setting by setting: (dose: 5.0 mg/kg/injection, schedule: Q01DX010 (ip), vehicle: steriod suspending solution) 95 % of control; (dose: 10.0 mg/kg/injection, schedule: Q01DX010 (ip), vehicle: steriod suspending solution) 100 % of control; (dose: 20.0 mg/kg/injection, schedule: Q01DX010 (ip), vehicle: steriod suspending solution) 90 % of control; (dose: 40.0 mg/kg/injection, schedule: Q01DX010 (ip), vehicle: steriod suspending solution) 104 % of control.
In the case of `Nc1cc(=O)[nH]c(O)c1C(=O)O`, the T/C was 109 % of control (dose: 6.25 mg/kg/injection, schedule: Q04DX003 (ip), vehicle: saline); 100 % of control under setting [6]; 100 % of control (dose: 25.0 mg/kg/injection, schedule: Q04DX003 (ip), vehicle: saline); 100 % of control (dose: 35.0 mg/kg/injection, schedule: Q04DX003 (ip), vehicle: saline); 113 % of control (dose: 55.0 mg/kg/injection, schedule: Q04DX003 (ip), vehicle: saline); 100 % of control (dose: 80.0 mg/kg/injection, schedule: Q04DX003 (ip), vehicle: saline). The T/C was 104 % of control (dose: 120.0 mg/kg/injection, schedule: Q04DX003 (ip), vehicle: saline); 86 % of control (dose: 180.0 mg/kg/injection, schedule: Q04DX003 (ip), vehicle: saline); 100 % of control (dose: 270.0 mg/kg/injection, schedule: Q04DX003 (ip), vehicle: saline).
With `C1=C(c2ccccc2)[P+](c2ccccc2)(c2ccccc2)C=C(c2ccccc2)[P+]1(c1ccccc1)c1ccccc1`, the T/C (dose: 11.0 mg/kg/injection, schedule: Q04DX003 (ip), vehicle: saline) was 115 % of control; the T/C under setting [6] was 123 % of control; the T/C (dose: 17.0 mg/kg/injection, schedule: Q04DX003 (ip), vehicle: saline) was 123 % of control; the T/C (dose: 37.0 mg/kg/injection, schedule: Q04DX003 (ip), vehicle: saline) is 100 % of control; the T/C under setting [5] was 119 % of control.
Take `[N-]=[N+]=CC(=O)NCC(=O)NO`: the T/C is 172 % of control (dose: 180.0 mg/kg/injection, schedule: Q01DX009 (ip), vehicle: water); 172 % of control (dose: 270.0 mg/kg/injection, schedule: Q01DX009 (ip), vehicle: water); 204 % of control (dose: 400.0 mg/kg/injection, schedule: Q01DX009 (ip), vehicle: water).
`COC(=O)C(Cc1ccc(N(CCCl)CCCl)cc1)N=NNc1nc[nH]c1C(N)=O` (stereo not given): the T/C was 154 % of control (dose: 14.0 mg/kg/injection, schedule: Q04DX003 (ip), vehicle: saline); 195 % of control under setting [4]; 213 % of control under setting [5].
Consider `CC(CCl)N(CCCl)Cc1cccc(Nc2ncnc3nc[nH]c23)c1` (stereo not given), for which the T/C reads like this: (dose: 0.8 mg/kg/injection, schedule: Q01DX009 (ip), vehicle: saline) 152 % of control; (dose: 1.5 mg/kg/injection, schedule: Q01DX009 (ip), vehicle: saline) 154 % of control; under setting [3], 164 % of control; (dose: 2.5 mg/kg/injection, schedule: Q01DX009 (ip), vehicle: saline) 185 % of control; (dose: 3.0 mg/kg/injection, schedule: Q01DX009 (ip), vehicle: saline) 160 % of control; (dose: 5.0 mg/kg/injection, schedule: Q01DX009 (ip), vehicle: saline) 175 % of control. The T/C (dose: 10.0 mg/kg/injection, schedule: Q01DX009 (ip), vehicle: saline) is 180 % of control and the T/C (dose: 10.0 mg/kg/injection, schedule: Q04DX003 (ip), vehicle: saline) was 86 % of control.
For the molecule `O=C1C=C(N2CC2)C(=O)C(N2CC2)=C1N1CC1`, the T/C is 265 % of control and 328 % of control (dose: 0.02 mg/kg/injection, schedule: Q01DX009 (ip), vehicle: saline); 98 % of control (dose: 0.04 mg/kg/injection, schedule: Q01DX009 (ip), vehicle: saline).
